Values joined by “and” are separate entries in the source; they are usually repeats but may differ in a detail not shown here. Identical values can stand only once. Inconclusive results and toxic doses are left out.
System: L1210 leukemia ip in BDF1 mice, survival T/C
Test: NCI In Vivo Anticancer Drug Screen. Data for tumor model L1210 Leukemia (intraperitoneal) in B6D2F1 (BDF1) mice
Details: endpoint: mean survival time, higher = longer survival
In short: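 In this screen, tumor-bearing mice given compound are compared to those given vehicle, and their survival values are reported as a treated-to-control quotient.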

SMILES: O=NN(CCCl)C(=O)N[C@H]1CCCC[C@@H]1Cl
- T/C (dose: 3.0 mg/kg/injection, schedule: Q## X024 (ip), vehicle: other): 103 % of control
- T/C (dose: 3.0 mg/kg/injection, schedule: Q## X024 (oral), vehicle: other): 114 % of control
- T/C (dose: 3.35 mg/kg/injection, schedule: Q01DX015 (ip), vehicle: other): 116 % of control
- T/C (dose: 5.0 mg/kg/injection, schedule: Q01DX015 (ip), vehicle: other): 173 % of control
- T/C (dose: 6.0 mg/kg/injection, schedule: Q01DX001 (oral), vehicle: other): 116 % of control
- T/C (dose: 6.0 mg/kg/injection, schedule: Q01DX001 (sc), vehicle: other): 123 % of control
- T/C (dose: 6.0 mg/kg/injection, schedule: Q## X008 (oral), vehicle: other): 122 % of control
- T/C (dose: 6.7 mg/kg/injection, schedule: Q02DX008 (ip), vehicle: other): 162 % of control and 208 % of control
- T/C (dose: 7.6 mg/kg/injection, schedule: Q01DX015 (ip), vehicle: other): 277 % of control
- T/C (dose: 7.62 mg/kg/injection, schedule: Q01DX015 (ip), vehicle: other): 485 % of control
- T/C (dose: 8.0 mg/kg/injection, schedule: Q01DX001 (ip), vehicle: carboxymethylcellulose (CMC)): 119 % of control
- T/C (dose: 10.2 mg/kg/injection, schedule: Q02DX008 (ip), vehicle: other): 242 % of control and 558 % of control
- T/C (dose: 11.4 mg/kg/injection, schedule: Q01DX015 (ip), vehicle: other): 348 % of control and 478 % of control
- T/C (dose: 12.0 mg/kg/injection, schedule: Q01DX001 (ip), vehicle: other): 203 % of control
- T/C (dose: 12.0 mg/kg/injection, schedule: Q## X008 (oral), vehicle: other): 117 % of control
- T/C (dose: 13.4 mg/kg/injection, schedule: Q## X004 (ip), vehicle: other): 291 % of control and 500 % of control
- T/C (dose: 13.75 mg/kg/injection, schedule: Q01DX001 (oral), vehicle: other): 150 % of control and 164 % of control
- T/C (dose: 13.75 mg/kg/injection, schedule: Q## X001 (oral), vehicle: other): 200 % of control
- T/C (dose: 15.0 mg/kg/injection, schedule: Q01DX001 (ip), vehicle: other): 187 % of control
- T/C (dose: 15.0 mg/kg/injection, schedule: Q01DX005 (ip), vehicle: other): 476 % of control
- T/C (dose: 15.0 mg/kg/injection, schedule: Q01DX009 (ip), vehicle: other): 408 % of control
- T/C (dose: 15.0 mg/kg/injection, schedule: Q01DX009 (sc), vehicle: other): 365 % of control
- T/C (dose: 15.0 mg/kg/injection, schedule: Q## X003 (ip), vehicle: other): 476 % of control
- T/C (dose: 15.24 mg/kg/injection, schedule: Q02DX008 (ip), vehicle: other): 501 % of control
- T/C (dose: 15.25 mg/kg/injection, schedule: Q01DX001 (ip), vehicle: other): 323 % of control
- T/C (dose: 15.25 mg/kg/injection, schedule: Q## X001 (ip), vehicle: other): 156 % of control
- T/C (dose: 16.0 mg/kg/injection, schedule: Q## X032 (ip), vehicle: other): 209 % of control
- T/C (dose: 17.0 mg/kg/injection, schedule: Q01DX015 (ip), vehicle: other): 330 % of control and 527 % of control
- T/C (dose: 18.0 mg/kg/injection, schedule: Q01DX001 (ip), vehicle: carboxymethylcellulose (CMC)): 183 % of control
- T/C (dose: 19.0 mg/kg/injection, schedule: Q01DX001 (ip), vehicle: carboxymethylcellulose (CMC)): 160 % of control
- T/C (dose: 20.4 mg/kg/injection, schedule: Q## X004 (ip), vehicle: other): 590 % of control
- T/C (dose: 22.8 mg/kg/injection, schedule: Q02DX008 (ip), vehicle: other): 433 % of control and 545 % of control
- T/C (dose: 24.0 mg/kg/injection, schedule: Q01DX001 (ip), vehicle: other): 476 % of control
- T/C (dose: 24.0 mg/kg/injection, schedule: Q01DX001 (oral), vehicle: other): 275 % of control
- T/C (dose: 24.0 mg/kg/injection, schedule: Q01DX001 (sc), vehicle: other): 267 % of control
- T/C (dose: 24.0 mg/kg/injection, schedule: Q## X008 (oral), vehicle: other): 165 % of control
- T/C (dose: 24.0 mg/kg/injection, schedule: Q## X024 (oral), vehicle: other): 270 % of control
- T/C (dose: 24.0 mg/kg/injection, schedule: Q## X032 (ip), vehicle: other): 470 % of control
- T/C (dose: 26.0 mg/kg/injection, schedule: Q01DX001 (ip), vehicle: carboxymethylcellulose (CMC)): 209 % of control and 243 % of control
- T/C (dose: 27.0 mg/kg/injection, schedule: Q01DX001 (ip), vehicle: other): 409 % of control
- T/C (dose: 27.5 mg/kg/injection, schedule: Q01DX001 (oral), vehicle: other): 263 % of control and 297 % of control
- T/C (dose: 27.5 mg/kg/injection, schedule: Q## X001 (oral), vehicle: other): 438 % of control
- T/C (dose: 28.0 mg/kg/injection, schedule: Q## X001 (oral), vehicle: other): 340 % of control
- T/C (dose: 30.0 mg/kg/injection, schedule: Q01DX005 (ip), vehicle: other): 203 % of control
- T/C (dose: 30.0 mg/kg/injection, schedule: Q01DX005 (oral), vehicle: other): 255 % of control
- T/C (dose: 30.0 mg/kg/injection, schedule: Q01DX009 (ip), vehicle: other): 121 % of control
- T/C (dose: 30.0 mg/kg/injection, schedule: Q01DX009 (sc), vehicle: other): 200 % of control
- T/C (dose: 30.0 mg/kg/injection, schedule: Q## X003 (ip), vehicle: other): 357 % of control
- T/C (dose: 30.0 mg/kg/injection, schedule: Q## X003 (oral), vehicle: other): 452 % of control
- T/C (dose: 30.5 mg/kg/injection, schedule: Q01DX001 (ip), vehicle: carboxymethylcellulose (CMC)): 303 % of control
- T/C (dose: 30.5 mg/kg/injection, schedule: Q01DX001 (ip), vehicle: other): 186 % of control and 230 % of control
- T/C (dose: 30.5 mg/kg/injection, schedule: Q## X001 (ip), vehicle: other): 205 % of control
- T/C (dose: 30.5 mg/kg/injection, schedule: Q## X004 (ip), vehicle: other): 525 % of control
- T/C (dose: 34.0 mg/kg/injection, schedule: Q02DX008 (ip), vehicle: other): 285 % of control and 398 % of control
- T/C (dose: 36.0 mg/kg/injection, schedule: Q01DX001 (ip), vehicle: carboxymethylcellulose (CMC)): 259 % of control
- T/C (dose: 40.0 mg/kg/injection, schedule: Q01DX001 (ip), vehicle: carboxymethylcellulose (CMC)): 235 % of control and 238 % of control
- T/C (dose: 41.0 mg/kg/injection, schedule: Q01DX001 (ip), vehicle: other): 590 % of control
- T/C (dose: 41.0 mg/kg/injection, schedule: Q## X001 (oral), vehicle: other): 403 % of control
- T/C (dose: 45.6 mg/kg/injection, schedule: Q## X004 (ip), vehicle: other): 289 % of control and 481 % of control
- T/C (dose: 46.0 mg/kg/injection, schedule: Q01DX001 (ip), vehicle: carboxymethylcellulose (CMC)): 329 % of control
- T/C (dose: 48.0 mg/kg/injection, schedule: Q01DX001 (ip), vehicle: other): 384 % of control
- T/C (dose: 48.0 mg/kg/injection, schedule: Q01DX001 (oral), vehicle: other): 476 % of control
- T/C (dose: 48.0 mg/kg/injection, schedule: Q01DX001 (sc), vehicle: other): 382 % of control
- T/C (dose: 48.0 mg/kg/injection, schedule: Q## X008 (oral), vehicle: other): 471 % of control
- T/C (dose: 48.0 mg/kg/injection, schedule: Q## X024 (oral), vehicle: other): 448 % of control
- T/C (dose: 54.4 mg/kg/injection, schedule: Q## X032 (ip), vehicle: other): 377 % of control
- T/C (dose: 55.0 mg/kg/injection, schedule: Q01DX001 (oral), vehicle: other): 174 % of control and 245 % of control
- T/C (dose: 55.0 mg/kg/injection, schedule: Q## X001 (oral), vehicle: other): 204 % of control
- T/C (dose: 60.0 mg/kg/injection, schedule: Q01DX001 (ip), vehicle: carboxymethylcellulose (CMC)): 296 % of control and 304 % of control and 329 % of control
- T/C (dose: 60.0 mg/kg/injection, schedule: Q01DX009 (sc), vehicle: other): 95 % of control
- T/C (dose: 60.0 mg/kg/injection, schedule: Q## X003 (ip), vehicle: other): 105 % of control
- T/C (dose: 61.0 mg/kg/injection, schedule: Q01DX001 (ip), vehicle: carboxymethylcellulose (CMC)): 329 % of control
- T/C (dose: 61.0 mg/kg/injection, schedule: Q## X001 (ip), vehicle: other): 320 % of control and 527 % of control
- T/C (dose: 68.0 mg/kg/injection, schedule: Q## X004 (ip), vehicle: other): 180 % of control and 221 % of control
- T/C (dose: 91.5 mg/kg/injection, schedule: Q01DX001 (ip), vehicle: carboxymethylcellulose (CMC)): 164 % of control
- T/C (dose: 91.5 mg/kg/injection, schedule: Q01DX001 (ip), vehicle: other): 237 % of control and 491 % of control
- T/C (dose: 93.0 mg/kg/injection, schedule: Q01DX001 (ip), vehicle: carboxymethylcellulose (CMC)): 108 % of control
- T/C (dose: 96.0 mg/kg/injection, schedule: Q01DX001 (ip), vehicle: other): 96 % of control
- T/C (dose: 96.0 mg/kg/injection, schedule: Q01DX001 (sc), vehicle: other): 420 % of control
- T/C (dose: 96.0 mg/kg/injection, schedule: Q## X008 (oral), vehicle: other): 225 % of control
- T/C (dose: 120.0 mg/kg/injection, schedule: Q## X003 (oral), vehicle: other): 102 % of control

— PubChem BioAssay AID248 (DTP/NCI, 2004)
